Measurements published in PMC3700763, “First human dose-escalation study with remogliflozin etabonate, a selective inhibitor of the sodium-glucose transporter 2 (SGLT2), in healthy subjects and in subjects with type 2 diabetes mellitus” (BMC Pharmacology & Toxicology, 2013).
Marks after values point to notes of the source that are not given here.

Columns and labels:
[1] = Plasma pharmacokinetics, T2DM subjects; type: in vivo, human; details: for AUC(0-inf) / Cmax / Tmax / half-life: human, plasma analyte; for AUC(0-inf): read-out: AUC(0–∞) Geometric mean (CV%); for Cmax: read-out: Cmax Geometric mean (CV%); for Tmax: read-out: Tmax Median; for half-life: read-out: T½ Geometric mean (CV%) (converted)
Method: Six subjects with T2DM received two doses of remogliflozin etabonate and a placebo dose, in a randomized, dose escalating, crossover design, along with an oral glucose load on three study sessions separated by 7–14 days. Full PK and safety profiles were measured on Day 1 of each dosing period. The doses selected for this portion of the study, 50 mg and 500 mg, were based on data obtained in Part A. In each dosing period, subjects were assigned to active vs placebo in a 2:1 ratio. On each dosing day, a series of 2.0 mL blood samples were collected at pre-dose and 10, 20, 30 and 45 min, and 1, 1.25, 1.5, 2, 2.5, 3, 4, 6, 8, 12, 16, and 24 h post-dose for the determination of remogliflozin etabonate, remogliflozin and GSK279782 in plasma by using high-performance liquid chromatography with tandem mass spectrometry (MS/MS) as described. Non-compartmental PK analysis of plasma concentration–time data was performed using WinNonlin Version 4.1 (Pharsight Corporation, Mountainview, CA, USA). The Cmax and Tmax were obtained directly from the data. Areas under the plasma concentration–time curves from time zero to the last quantifiable time point (AUC[0–last]) and extrapolated to infinity (AUC[0–∞]) were calculated using the log-linear trapezoidal method. The terminal plasma elimination rate-constant (λz) was estimated from log-linear regression analysis of the terminal phase of the plasma concentration–time curve, and the T½ was calculated as T½ = ln2/λz. Ratios of AUC(0–∞) remogliflozin to AUC(0–last) remogliflozin etabonate were calculated including molecular weight corrections.

[2] = test system: SGLT-2; set-up: method as in PMID 22851617; details: relative to remogliflozin; cited from earlier work
[3] = Plasma pharmacokinetics, healthy subjects; type: in vivo, human; details: for Tmax / half-life / AUC(0-inf) / Cmax: human; for AUC(0-inf): read-out: AUC(0-∞) Geometric mean (CV%); for Cmax: read-out: Cmax Geometric mean (CV%); for AUC ratio (remogliflozin/remogliflozin etabonate) Geometric mean: molecular weight corrected
Method: Ten healthy subjects were evaluated in 5 study sessions, each separated by approximately 2 weeks. At each study session, subjects received either an oral dose of remogliflozin etabonate or placebo after an overnight fast. Remogliflozin etabonate doses were 20 mg, 50 mg, 150 mg, 500 mg and 1000 mg. Over the course of participation in the study, each subject received 4 of the 5 active remogliflozin etabonate doses and 1 dose of placebo (4:1 active to placebo ratio per treatment period). The available safety and PK results from each dosing period were evaluated before proceeding to the next dose level. On each dosing day, a series of 2.0 mL blood samples were collected at pre-dose and 10, 20, 30 and 45 min, and 1, 1.25, 1.5, 2, 2.5, 3, 4, 6, 8, 12, 16, and 24 h post-dose for the determination of remogliflozin etabonate, remogliflozin and GSK279782 in plasma by using high-performance liquid chromatography with tandem mass spectrometry (MS/MS) as described. Non-compartmental PK analysis of plasma concentration–time data was performed using WinNonlin Version 4.1 (Pharsight Corporation, Mountainview, CA, USA). The Cmax and Tmax were obtained directly from the data. Areas under the plasma concentration–time curves from time zero to the last quantifiable time point (AUC[0–last]) and extrapolated to infinity (AUC[0–∞]) were calculated using the log-linear trapezoidal method. The terminal plasma elimination rate-constant (λz) was estimated from log-linear regression analysis of the terminal phase of the plasma concentration–time curve, and the T½ was calculated as T½ = ln2/λz. Ratios of AUC(0–∞) remogliflozin to AUC(0–last) remogliflozin etabonate were calculated including molecular weight corrections. Safety and pharmacodynamic data were summarized using descriptive statistics. This was a small exploratory study and no formal hypothesis-testing was conducted. Dose proportionality with respect to Cmax, and AUC was assessed using the power model y = α dose^β, where y = Cmax or AUC, and α denotes a random subject effect. The exponent β in the power model will be estimated by regressing the loge-transformed PK parameters on loge dose, i.e. ln(PK parameter) = ln(α) + β * ln(dose). Dose proportionality implied that β = 1 and was assessed by estimating β and its corresponding 90% confidence interval. The power model was fitted by restricted maximum likelihood using SAS Proc Mixed.

[4] = test system: SGLT2 over SGLT1; set-up: method as in PMID 12139397; details: cited from earlier work
[5] = remogliflozin etabonate 50 mg oral dose
[6] = remogliflozin etabonate 500 mg oral dose (prodrug n = 2)
[7] = remogliflozin etabonate 500 mg oral dose
[8] = plasma, po, 20 mg, plasma analyte, healthy subjects, remogliflozin etabonate 20 mg oral dose, read-out: T½ Geometric mean (CV%) (converted)
[9] = plasma, po, 50 mg, plasma analyte, healthy subjects, remogliflozin etabonate 50 mg oral dose, read-out: T½ Geometric mean (CV%) (converted)
[10] = plasma, po, 150 mg, plasma analyte, healthy subjects, remogliflozin etabonate 150 mg oral dose, read-out: T½ Geometric mean (CV%) (converted)
[11] = plasma, po, 500 mg, plasma analyte, healthy subjects, remogliflozin etabonate 500 mg oral dose, read-out: T½ Geometric mean (CV%) (converted)
[12] = plasma, po, 1000 mg, plasma analyte, healthy subjects, remogliflozin etabonate 1000 mg oral dose, read-out: T½ Geometric mean (CV%) (converted)
[13] = plasma analyte, healthy subjects, remogliflozin etabonate 20 mg oral dose
[14] = plasma analyte, healthy subjects, remogliflozin etabonate 20 mg oral dose, read-out: Tmax Median
[15] = plasma analyte, healthy subjects, remogliflozin etabonate 50 mg oral dose
[16] = plasma analyte, healthy subjects, remogliflozin etabonate 50 mg oral dose, read-out: Tmax Median
[17] = plasma analyte, healthy subjects, remogliflozin etabonate 150 mg oral dose
[18] = plasma analyte, healthy subjects, remogliflozin etabonate 150 mg oral dose, read-out: Tmax Median
[19] = plasma analyte, healthy subjects, remogliflozin etabonate 500 mg oral dose
[20] = plasma analyte, healthy subjects, remogliflozin etabonate 500 mg oral dose, read-out: Tmax Median
[21] = plasma analyte, healthy subjects, remogliflozin etabonate 1000 mg oral dose
[22] = plasma analyte, healthy subjects, remogliflozin etabonate 1000 mg oral dose, read-out: Tmax Median

Row | AUC(0-inf) [1, 5] | Cmax [1, 5] | Tmax [1, 5] | half-life [1, 5] | AUC(0-inf) [1, 6] | half-life [1, 6] | Cmax [1, 7] | Tmax [1, 7] | half-life [3, 8] | half-life [3, 9] | half-life [3, 10] | half-life [3, 11] | half-life [3, 12] | AUC(0-inf) [3, 13] | Cmax [3, 13] | Tmax [3, 14] | AUC(0-inf) [3, 15] | Cmax [3, 15] | Tmax [3, 16] | AUC(0-inf) [3, 17] | SMILES | further results
1 | 130 ng·h/mL | 34.6 ng/mL | 1.74 h | 2.05 h | 1290 ng·h/mL | 3.28 h | 314 ng/mL | 2.75 h | 1.54 h | 2.19 h | 2.28 h | 3.07 h | 3.5 h | 51.8 ng·h/mL | 17.5 ng/mL | 1.26 h | 145 ng·h/mL | 50.2 ng/mL | 1.38 h | 447 ng·h/mL | Cc1[nH]nc(O[C@@H]2O[C@H](CO)[C@@H](O)[C@H](O)[C@H]2O)c1Cc1ccc(OC(C)C)cc1 [GSK279782] | Potency in inhibiting SGLT-2 in vitro [2]: as potent as remogliflozin; Tmax ([3]; plasma, oral, healthy subjects, 20-1000 mg, read-out: median Tmax estimates, range across doses): 1 to 1.5 h; half-life ([3]; plasma, oral, healthy subjects, 20-1000 mg, read-out: median T½ estimates, range across doses): 1.54 to 3.5 h; Cmax [3, 17]: 155 ng/mL; Tmax [3, 18]: 1 h; AUC(0-inf) [3, 19]: 1520 ng·h/mL; Cmax [3, 19]: 498 ng/mL; Tmax [3, 20]: 1.5 h; AUC(0-inf) [3, 21]: 4000 ng·h/mL; Cmax [3, 21]: 1290 ng/mL; Tmax [3, 22]: 1.25 h
2 | 523 ng·h/mL | 195 ng/mL | 1.46 h | 1.59 h | 5180 ng·h/mL | 3.93 h | 1890 ng/mL | 2.5 h | 1.38 h | 1.47 h | 1.59 h | 2.57 h | 2.86 h | 133 ng·h/mL | 61 ng/mL | 0.89 h | 324 ng·h/mL | 158 ng/mL | 1.14 h | 991 ng·h/mL | Cc1c(Cc2ccc(OC(C)C)cc2)c(O[C@@H]2O[C@H](CO)[C@@H](O)[C@H](O)[C@H]2O)nn1C(C)C [Remogliflozin, remogliflozin] | AUC(0–∞) ratio (Remogliflozin/remogliflozin etabonate) Geometric mean (CV%) ([1]; 50 mg oral dose): 59 (62); AUC(0–∞) ratio (Remogliflozin/remogliflozin etabonate) Geometric mean (CV%) ([1]; 500 mg oral dose): 54 (38); AUC ratio (remogliflozin/remogliflozin etabonate) Geometric mean ([3]; healthy subjects, 20 mg oral dose, n = 5): 84^d; AUC ratio (remogliflozin/remogliflozin etabonate) Geometric mean ([3]; healthy subjects, 50 mg oral dose): 81; AUC ratio (remogliflozin/remogliflozin etabonate) Geometric mean ([3]; healthy subjects, 150 mg oral dose): 102; AUC ratio (remogliflozin/remogliflozin etabonate) Geometric mean ([3]; healthy subjects, 500 mg oral dose): 105; AUC ratio (remogliflozin/remogliflozin etabonate) Geometric mean ([3]; healthy subjects, 1000 mg oral dose): 95; Time to appearance in plasma at relatively high concentrations ([3]; healthy subjects, after remogliflozin etabonate dosing): ≤ 10 min; half-life ([3]; plasma, oral, both populations, independent of dose (abstract), read-out: mean plasma T½): 2 h; half-life ([3]; plasma, oral, healthy subjects, 20-1000 mg, read-out: mean T½ estimates, range across doses): 1.38 to 2.86 h; Tmax ([3]; plasma, both populations, after oral RE (abstract), read-out: time to maximum plasma concentration (Tmax)): ~1 h; Cmax [3, 17]: 515 ng/mL; Tmax [3, 18]: 0.66 h; AUC(0-inf) [3, 19]: 3720 ng·h/mL; Cmax [3, 19]: 1700 ng/mL; Tmax [3, 20]: 1.5 h; AUC(0-inf) [3, 21]: 10300 ng·h/mL; Cmax [3, 21]: 4820 ng/mL; Tmax [3, 22]: 1.25 h; Selectivity for SGLT2 over SGLT1 [4]: high level of selectivity
